“And” between values parts separate entries of the source, which are not always exact repeats. Equal entries are not always repeated. ± gives the expanded uncertainty stated by the source. Values belong to the compound of their own block, whether it stands above or below them.
What was measured:
[1] = molar enthalpy of vaporization or sublimation; conditions: 298.15 K; Crystal; Static calorimetry
[2] = Crystal, Calculated from knudsen effusion weight loss

molar enthalpy [1]: 25.1 ± 0.526 kcal/mol
Structure (SMILES): Oc1ccccc1-c1nc2ccccc2s1 [2-(2-hydroxyphenyl)-1,3-benzothiazole]

molar enthalpy [1]: 24 ± 0.43 kcal/mol
Structure (SMILES): Oc1ccccc1-c1nc2ccccc2o1 [2-(2-hydroxyphenyl)benzoxazole]
vapor or sublimation pressure ([2]; 331.16 K): 0.000127 ± 0.00012 kPa and 0.00012 ± 0.00012 kPa and 0.000119 ± 0.00012 kPa
vapor or sublimation pressure ([2]; 333.19 K): 0.000156 ± 0.00012 kPa and 0.000152 ± 0.00012 kPa and 0.00015 ± 0.00012 kPa
vapor or sublimation pressure ([2]; 335.13 K): 0.000191 ± 0.00012 kPa and 0.000188 ± 0.00012 kPa
vapor or sublimation pressure ([2]; 337.16 K): 0.000233 ± 0.00012 kPa and 0.00023 ± 0.00012 kPa and 0.000248 ± 0.00012 kPa
vapor or sublimation pressure ([2]; 339.18 K): 0.000301 ± 0.00012 kPa and 0.000288 ± 0.00012 kPa and 0.000294 ± 0.00012 kPa
vapor or sublimation pressure ([2]; 341.12 K): 0.000365 ± 0.00012 kPa and 0.000362 ± 0.00012 kPa and 0.000366 ± 0.00012 kPa
vapor or sublimation pressure ([2]; 343.16 K): 0.000446 ± 0.00012 kPa and 0.000441 ± 0.00012 kPa and 0.000477 ± 0.00012 kPa
vapor or sublimation pressure ([2]; 345.17 K): 0.000571 ± 0.00012 kPa and 0.000545 ± 0.00012 kPa and 0.000558 ± 0.00012 kPa
vapor or sublimation pressure ([2]; 347.11 K): 0.000688 ± 0.00012 kPa and 0.00068 ± 0.00012 kPa
vapor or sublimation pressure ([2]; 349.16 K): 0.000829 ± 0.00012 kPa and 0.000822 ± 0.00012 kPa and 0.000879 ± 0.00012 kPa
vapor or sublimation pressure ([2]; 351.16 K): 0.001027 ± 0.00014 kPa and 0.001049 ± 0.00014 kPa and 0.001006 ± 0.00014 kPa
vapor or sublimation pressure ([2]; 353.12 K): 0.001264 ± 0.00015 kPa and 0.001273 ± 0.00015 kPa and 0.00126 ± 0.00015 kPa

molar enthalpy [1]: 23.7 ± 0.406 kcal/mol
Structure (SMILES): c1ccc(-c2nc3ccccc3s2)cc1 [2-phenylbenzothiazole]

molar enthalpy [1]: 21.7 ± 0.478 kcal/mol
Structure (SMILES): c1ccc(-c2nc3ccccc3o2)cc1 [2-phenylbenzoxazole]
